Patent publication US20030133923A1, “Composition for preventing the formation and enhancing the breakdown of bezoars in animals and humans” (priority 2001, published 2003)

Assay: In vitro breakdown of a feline hairball under simulated stomach conditions (pH 3.0, 100° F., 24 hours)
Settings: for % enhanced break down: versus 0% Tween-80; for Hair clump wt: hairball 1.0-1.1 g
Method: Tween 80 (lot#1373A, Uniqema, Wilmington, Del.) was dissolved in 150 ml acidified water (pH 3.0) at a concentration of 0%, 5%, 10%, 15%, and 20%. A feline hairball (1.0-1.1 g) was then added to each of the five solutions. The mixtures were incubated at 100° F. for 24 hours. After incubation, hair lumps (defined as hair not floating free in the liquid) was removed and the liquid was strained through cheesecloth. Free hair and hair lumps were then dried and weighed.

Q: Which Free hair wt (5% Tween-80, pH 3.0, 100° F.) does the source give for `CCCCCCCC/C=C\CCCCCCCC(=O)OCCOCC(OCCO)C1OCC(OCCO)C1OCCO` (centres unmarked) [Tween-80] here?
A: 0.1606 g

Q: And the “Free hair wt (% total wt)” value (5% Tween-80, pH 3.0, 100° F.)?
A: 20.38%

Q: And the “Hair clump wt (% total wt)” value (5% Tween-80, pH 3.0, 100° F.)?
A: 79.62%

Q: And the “% enhanced break down” value (5% Tween-80, pH 3.0, 100° F.)?
A: 5%

Q: What about the Hair clump wt (5% Tween-80 in 150 ml acidified water pH 3.0, 100° F.) of the same compound?
A: 0.6273 g

Q: And the Free hair wt (10% Tween-80, pH 3.0, 100° F.)?
A: 0.2576 g

Q: And the “Free hair wt (% total wt)” value (10% Tween-80, pH 3.0, 100° F.)?
A: 53.78%

Q: And the “Hair clump wt (% total wt)” value (10% Tween-80, pH 3.0, 100° F.)?
A: 46.22%

Q: And the “% enhanced break down” value (10% Tween-80, pH 3.0, 100° F.)?
A: 35%

Q: What about the Hair clump wt (10% Tween-80 in 150 ml acidified water pH 3.0, 100° F.) of the same compound?
A: 0.2214 g

Q: And the Free hair wt (15% Tween-80, pH 3.0, 100° F.)?
A: 0.1980 g

Q: And the “Free hair wt (% total wt)” value (15% Tween-80, pH 3.0, 100° F.)?
A: 47.86%

Q: And the “Hair clump wt (% total wt)” value (15% Tween-80, pH 3.0, 100° F.)?
A: 52.14%

Q: What about the “% enhanced break down” value (15% Tween-80, pH 3.0, 100° F.) of the same compound?
A: 35%

Q: And the Hair clump wt (15% Tween-80 in 150 ml acidified water pH 3.0, 100° F.)?
A: 0.2157 g

Q: And the Free hair wt (20% Tween-80, pH 3.0, 100° F.)?
A: 0.2480 g

Q: What about the “Free hair wt (% total wt)” value (20% Tween-80, pH 3.0, 100° F.) of the same compound?
A: 51.99%

Q: And the “Hair clump wt (% total wt)” value (20% Tween-80, pH 3.0, 100° F.)?
A: 48.00%

Q: What about the “% enhanced break down” value (20% Tween-80, pH 3.0, 100° F.) of the same compound?
A: 35%

Q: And the Hair clump wt (20% Tween-80 in 150 ml acidified water pH 3.0, 100° F.)?
A: 0.2290 g
